Results reported in patent publication US20060073529A1, “Luciferyl peptide substrate” (priority 2004, published 2006).
The star is where a group is joined. aminoluciferin = O=C(O)[C@H]1CSC(c2nc3ccc(N*)cc3s2)=N1

Columns and labels:
[1] = test system: LNCaP, a prostate cancer cell line that produces PSA; assay: in vitro model: PSA-specific substrate on PSA secreting cells (FIG. 7); assay type: cell-based; settings: serum-free media
Description: The LNCaP cells were incubated for 5 and 19 hours, which represented two time intervals during which the cells were to synthesize PSA, and both cell lines were transfected with SKLQ-aLuc to produce luciferase. […] (“DHT”) was used to investigate its influence on cell growth and PSA production. The cell culture media was serum-free to prevent PSA from forming complexes with various serine-protease inhibitors that are present in the serum.

[2] = test system: luciferase; assay: imaging of mice expressing the luc gene after substrate injection; assay type: in vivo, mouse; settings: substrate injected, no protease injected
Description: In these experiments, injection of the mice with luciferin activates the luciferin-luciferase reaction and the subsequent emission of light, i.e., photons, which can be monitored outside the body using low light imaging systems, based on charge coupled device (“CCD”) cameras.
In FIG. 4A, the pictured mouse was injected with luciferin. […] In FIG. 4B, the mice were injected with the modified substrate N-Ac-Phe-aminoluciferin. […] The mouse pictured on the right was subjected to further injections with chymotrypsin at selected sites. Chymotrypsin is a proteolytic enzyme that can use N-Ac-Phe-aminoluciferin as a substrate.

[3] = test system: chymotrypsin; assay: in vivo protease assay: luc mice given substrate plus chymotrypsin injections at selected sites; set-up: species or system mouse; settings: mice expressing luc gene, further injections with chymotrypsin at selected sites
Description: In FIG. 4A, the pictured mouse was injected with luciferin. […] In FIG. 4B, the mice were injected with the modified substrate N-Ac-Phe-aminoluciferin. […] The dramatic reduction in signal intensity (note scales on images) on the second mouse is due to the lack of freely available substrate for the luciferase reaction. The mouse pictured on the right was subjected to further injections with chymotrypsin at selected sites. Chymotrypsin is a proteolytic enzyme that can use N-Ac-Phe-aminoluciferin as a substrate. […] The freely available aminoluciferin was then catalyzed by luciferase to generate the photons seen in the photograph. […] It can thus be observed that the use of aminoluciferin substrates results in increased versatility for in vivo assays such that protease activity can be assessed in live cells in vivo or in a test tube.
In a one embodiment of the invention, peptide sequences that are conjugated to aminoluciferin are cleaved by the protease chymotrypsin or by chymotrypsin-like proteases, such as, for example, PSA, a clinical marker for prostate cancer.

[4] = test system: chymotrypsin; assay: protease assay of FIG. 3, performed in culture; assay type: cell-based
Source text: The procedure described in FIG. 2 may be used in in vivo protease assays. Naturally occurring proteases can be used to convert luciferylpeptides to aminoluciferin. These naturally occurring proteases may be associated with a physical state of the body, an organ, tissue, or cells, or may be associated with the location of particular conditions. There, the luciferylpeptide, N-Ac-Phe-aminoluciferin, was synthesized from a solution of 6-amino-2-cyanobenzothiazole, pursuant to the procedure set forth in Monsees et al., supra. […] The aminoluciferin was then available for reaction with luciferase, and in the presence of ATP and O2 in the cells, produced visible light and oxyaminoluciferin. The procedure shown in FIG. 3 was initially performed in culture and subsequently in a transgenic mouse model. This procedure can be modified by adding different compounds to the aminoluciferin, and cleaving the conjugate at the appropriate time and place with specific enzymes.

[5] = molecular target: luciferase (Photinus pyralis, UniProt P08659); settings: in the presence of ATP, Mg2+/O2 and luciferase; cited from earlier work
luciferase (Photinus pyralis, UniProt P08659), sequence (P08659 whole entry): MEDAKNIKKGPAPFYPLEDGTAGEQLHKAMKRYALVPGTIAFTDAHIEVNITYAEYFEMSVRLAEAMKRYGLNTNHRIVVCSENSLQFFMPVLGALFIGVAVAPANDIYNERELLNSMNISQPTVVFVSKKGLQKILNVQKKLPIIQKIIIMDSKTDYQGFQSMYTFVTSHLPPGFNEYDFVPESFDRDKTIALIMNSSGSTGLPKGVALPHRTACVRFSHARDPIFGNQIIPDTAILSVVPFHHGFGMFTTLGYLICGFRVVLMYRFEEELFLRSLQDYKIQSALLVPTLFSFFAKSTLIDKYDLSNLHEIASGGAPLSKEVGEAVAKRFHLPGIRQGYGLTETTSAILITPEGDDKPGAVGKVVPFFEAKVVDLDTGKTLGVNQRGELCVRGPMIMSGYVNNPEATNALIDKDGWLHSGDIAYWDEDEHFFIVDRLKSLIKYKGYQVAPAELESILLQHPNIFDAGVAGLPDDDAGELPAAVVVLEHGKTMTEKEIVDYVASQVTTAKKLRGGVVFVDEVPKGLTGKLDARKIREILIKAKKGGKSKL

[6] = test system: LNCaP tumor (PSA); assay: in vivo model: SCID mice bearing subcutaneous LNCaP tumor (FIG. 8); set-up: species or system mouse; settings: FIG. 8B
Description: The peptides were then tested in severe compromised immune deficiency (SCID) mice that bore an LNCaP tumor implanted at a subcutaneous site. […] The mice were injected with luciferin to localize the tumors and confirm their presence. […] The aminoluciferin released from the cleavage of the peptide by PSA is transported across the LNCaP cell membrane and reacts with luciferase to emit light. Thus, the aminoluciferyl peptide is activated by PSA and consequently can be used to target PSA producing cells in animal models.

Compound: C[C@]12CCC(=O)C[C@@H]1CC[C@@H]1[C@@H]2CC[C@]2(C)[C@@H](O)CC[C@@H]12 [DHT, Dihydroxytestosterone]
- influence on PSA levels ([1]; LNCaP/PC3M): does not appear to influence
- influence on cell growth ([1]; LNCaP/PC3M): does not appear to influence

Compound: CC(=O)N[C@@H](Cc1ccccc1)C(=O)Nc1ccc2nc(C3=N[C@@H](C(=O)O)CS3)sc2c1 [N-Ac-Phe-aminoluciferin]
- photon emission from the mouse [2]: only isolated regions of the mouse produced low level photon emission
- photon emission from the mouse after protease injection [3]: only the sites where the protease enzyme was injected produced detectable signals
- luminescence of the intact luciferylpeptide ([4]; before addition of chymotrypsin): prevented from luminescing
- cleavage of the luciferylpeptide by the protease ([4]; upon addition of chymotrypsin): aminoluciferin was cleaved from the luciferylpeptide

Compound: Nc1ccc2nc(C3=N[C@@H](C(=O)O)CS3)sc2c1 [aminoluciferin, D-(−)-2-(6′-amino-2′-benzothiazolyl)-Δ^2-thiazoline-4-carboxylic Acid]
- light generation compared with luciferin [5]: generates light to the same extent as does luciferin

Compound: O=C(O)[C@H]1CSC(c2nc3ccc(O)cc3s2)=N1 [luciferin, (D)-(−)-2-(6′-Hydroxy-2′-benzothiazolyl)-2-thiazoline-4-carboxylic acid]
- photon emission from the mouse [2]: most of the tissues of this mouse emitted visible light

Compound: Ac-Ser-Lys-Leu-Gln-aLuc (Ac-SKLQ-aminoluciferin; SMILES CC(=O)N[C@@H](CO)C(=O)N[C@@H](CCCCN)C(=O)N[C@@H](CC(C)C)C(=O)N[C@@H](CCC(N)=O)C(=O)Nc1ccc2nc(C3=N[C@@H](C(=O)O)CS3)sc2c1) [SKLQ-aLuc]
- light emission from LNCaP tumors [6]: light emission from these tumors
- amount of aminoluciferyl peptide detected in the cells versus PSA secreted ([1]; LNCaP incubated 5 and 19 hours, PC3M as non-PSA line): directly proportional to the amount of PSA secreted into the media by the LNCaP cells
